Test results from article PMC8916643, “Molecular physiology of pumiliotoxin sequestration in a poison frog” (PLoS ONE, 2022).

Assays:
[1] = Alkaloid feeding experiment, alkaloid abundance in tissues by LC-MS/MS; format: in vivo, Dendrobates tinctorius
From the text: Lab-reared (non-toxic) Dendrobates tinctorius were housed in terraria with live plants, a water pool, and a shelter. Ten adult females were size-matched, randomly assigned to control or experimental groups (N = 5 per group), and then housed individually. To measure the specific effects of PTX 251D compared to a background toxicity, the control group was fed 0.01% DHQ (Sigma-Aldrich, St. Louis, USA) in a solution of 1% EtOH and the experimental group was fed a solution of 0.01% DHQ and 0.01% PTX 251D (PepTech, Burlington, MA, USA) in a solution of 1% EtOH in water. Each frog was fed 15 μL each day for five days by pipetting the solution directly into the mouth between 10am-12pm. On the afternoon of the fifth day, frogs were euthanized by cervical transection and the dorsal skin, liver, intestines, and oocytes were dissected into Trizol (Thermo Fisher Scientific, Waltham, USA).
To isolate alkaloids, 0.3 mL of 100% EtOH was added to 1mL of organic layer from the Trizol RNA extraction, inverted 10 times, and stored at room temperature for 2–3 minutes to precipitate genomic DNA, which was pelleted by centrifugation at 2000g for 5 minutes at 4°C. Then, 300 μL of supernatant was transferred to a new microfuge tube. Proteins were precipitated by adding 900 μL of acetone, mixing by inversion for 10–15 seconds, incubating at room temperature for 10 min, and centrifuging at max speed for 10 min at 4°C. Then, 1 mL of the supernatant containing alkaloids was moved into a glass vial and stored at -20°C until dried down completely under a gentle nitrogen gas flow.
Samples were resuspended in 200 μl of methanol:chloroform 1:1 and 1 μM Nicotine-d3 (used as an internal standard). A 10-point standard curve was prepared in the same solution with DHQ and PTX 251D. A QE+ mass spectrometer coupled to an Ultimate3000 LC (ThermoFisher) was used for analysis. […] The gradient was 0% B for 1 min, then increased to 100% B in 14 min, followed by 5 min at 100% B and 3.5 min at 0% B. Data were quantified using accurate mass, using the standard curve for DHQ and PTX 251D for absolute quantification. aPTX 267A was identified by accurate mass and MS/MS fragmentation similarity to PTX.
R version 3.6.3 was used for all statistical analyses, and all plotting and statistics code is provided in a S1 File. There were instances in the LC-MS/MS data where the molecules of interest (DHQ, PTX 251D, or aPTX 267A) were not detected, and these were converted to zeros prior to statistical analyses and visualization. […] PTX 251D and DHQ were analyzed separately. The abundance of aPTX 267A was approximated using the area-under-the-curve divided by the internal nicotine standard, and as there is no standard for aPTX 267A, exact pmol values could not be calculated. […]

[2] = tested on: mice; settings: cited from earlier work

Row | SMILES | DHQ abundance across tissue types ([1]; fed orally daily for five days, skin, liver, intestines, oocytes) | lethal dose (hyperactivity, convulsions, and death) ([2]; injected into mice) [mg/kg] | lethal dose relative to that of PTX 251D ([2]; mice) | aPTX 267A abundance across tissues ([1]; DHQ+PTX feeding group) | aPTX 267A in the skin after PTX 251D feeding ([1]; DHQ+PTX feeding group vs DHQ-fed group, all individuals, area-under-the-curve divided by internal nicotine standard)
1 | C1CCC2NCCCC2C1 (centres unmarked) [DHQ, reference compound] | highest levels occurring in the liver and skin | – | – | – | –
2 | CCCCC(C)C=C1CN2CCCC2C(C)(O)C1O (centres unmarked) [aPTX 267A, allopumiliotoxin (aPTX 267A)] | – | 2 | five times lower | greater abundance in the skin than the oocytes | higher levels than the DHQ-fed group
